Values joined by “and” are separate entries in the source; they are usually repeats but may differ in a detail not shown here. Equal values may be shown once. Where a SMILES comes first, the peptide text is derived from it. [ ]: non-standard residue; d: D form. Bpa = N[C@@H](Cc1ccc(C(=O)c2ccccc2)cc1)C(=O)O
Columns and labels:
HIV-1 IN [1] = molecular target: T1, HIV-1 IN (Human immunodeficiency virus type 1 group M subtype B, UniProt P12497); test: HTRF-based IN multimerization assay; type: biochemical; design: WT HIV-1 IN recombinant proteins with His or FLAG tags; made in house; host or cells: Escherichia coli; conditions: 100 µM peptide
Method: WT HIV-1 IN recombinant proteins with His or FLAG tags were expressed in Escherichia coli and purified as described previously. The His6–tagged IN construct was purified by loading the cell lysate onto a Nickel-Sepharose column (GE Healthcare, Chicago, IL, USA) and eluting bound integrase with an imidazole gradient in a 50 mM HEPES (pH 7.5) buffer containing 1 M NaCl, 7.5 mM CHAPS, 2 mM beta-mercaptoethanol. Peak fractions were pooled, diluted and loaded onto a heparin column (GE Healthcare), and integrase was eluted with an increasing NaCl gradient in a 50 mM HEPES (pH 7.5) buffer containing 7.5 mM CHAPS and 2 mM beta-mercaptoethanol. The FLAG-tagged IN construct was purified by loading the ammonium sulfate precipitate of cell lysate onto a phenyl-Sepharose column (GE Healthcare) and eluting bound integrase with a decreasing ammonium sulfate gradient in a 50 mM HEPES (pH 7.5) buffer containing 200 mM NaCl, 7.5 mM CHAPS, 2 mM beta-mercaptoethanol. Peak fractions were pooled and loaded onto a heparin column (GE Healthcare), and integrase was eluted with an increasing NaCl gradient in a 50 mM HEPES (pH 7.5) buffer containing 7.5 mM CHAPS and 2 mM beta-mercaptoethanol. […] The HTRF signal was recorded using a PerkinElmer EnSpire multimode plate reader.

[2] = test system: 21-mer duplex DNA substrate (21T/21B); test: Binding to DNA substrate alone by fluorescence anisotropy; conditions: absence of IN; concentrations up to 37 µM
Method: (§1) DNA binding was measured using a plate-based assay following fluorescence polarization of a fluorescent 21-mer duplex DNA substrate (21T/21B duplex oligonucleotide) with an AlexaFluor 488 modification at the 5′-end of the 21T oligonucleotide. Peptide or DMSO (control, without peptide) were incubated at room temperature for 5 min in the IN-activity buffer in the absence or the presence of IN (400 nM). After addition of the DNA (10 nM), fluorescence anisotropy was measured every 30 s for 30 min using an Envision plate reader (Perkin Elmer, Waltham, MA, USA).

IN-DNA complex = IN-DNA complex (Human immunodeficiency virus type 1 group M subtype B, UniProt P12497); test: IN-DNA complex formation by fluorescence anisotropy; type: binding, HIV-1; conditions: IN (400 nM) preincubated with peptide, 10 nM DNA
Method: as §1

HIV-1 integrase (IN) [3] = molecular target: T2, HIV-1 integrase (IN) (Human immunodeficiency virus type 1 group M subtype B, UniProt P12497); test: In vitro integrase catalytic assay, strand transfer (ST); type: biochemical; conditions: 400 nM IN, 20 nM 32P-labeled pre-cleaved 19T/21B DNA, 37 °C, 2 h
Method: (§2) IN reactions were performed as previously described. […] Reactions were performed at 37 °C (2 h) and quenched by the addition of an equal volume of loading buffer (formamide containing 1% sodium dodecyl sulfate, 0.25% bromophenol blue, and xylene cyanol). Reaction products were separated in 16% polyacrylamide denaturing sequencing gels. Dried gels were visualized using a Typhoon 8600 instrument (GE Healthcare, Chicago, IL, USA). Densitometric analyses were performed using ImageQuant 5.1 software (GE Healthcare, Chicago, IL, USA). Data analyses (linear regression, 50% inhibitory concentration [IC50] determination, standard deviation [SD]) were performed from at least 3 independent determinations using Prism 5.0c software from GraphPad (La Jolla, CA, USA). To assay 3′-P inhibitory potency, reactions were carried out with [γ-^32P]-labeled full-length oligonucleotide 21T ([…]) annealed to the complementary oligonucleotide 21B ([…]). Formation of the shorter processed 19T products was monitored and quantified to assess enzyme performance and inhibitor potency. The ST reactions were carried out with the [γ-^32P]-labeled pre-cleaved oligonucleotide 19T ([…]) annealed to the complementary oligonucleotide 21B ([…]) and formation of integration products (longer and slower migrating than the starting 19T substrate) was monitored to assess enzyme performance and inhibitor potency.

HIV-1 integrase (IN) [4] = molecular target: T2, HIV-1 integrase (IN); test: In vitro integrase catalytic assay, 3'-processing (3'-P); type: biochemical; conditions: 400 nM IN, 20 nM 32P-labeled 21T/21B DNA, 37 °C, 2 h
Method: as §2

HIV-1 IN [5] = molecular target: T1, HIV-1 IN; test: UV photo-crosslinking to IN with Western blot detection; type: binding; conditions: 15 (111 µM), IN (3.2 µM)
Method: Peptide 15 (111 µM), containing a photo-reactive Bpa group and a biotin linked to its amino terminus, was incubated for 2 h at 37 °C in the absence or the presence of IN (3.2 µM) before UV irradiation (5 min at […]). After adding 2 × 10 µL of loading buffer, samples were heat-denatured at 95 °C (5 min). Products were separated on 16% SDS-PAGE and transferred to a PVDF membrane using an iBlot system (Invitrogen, Carlsbad, CA, USA). […] Reading was performed using an Odyssey® Infrared Imaging System (LI-COR Biotechnology, Lincoln, NE, USA).

IN = test system: IN; design: method as in PMID 17490682; conditions: read-out: IN ST-inhibitory potency IC50; cited from earlier work

Row | Molecule | Induction of higher-order IN multimerization (HTRF signal) (HIV-1 IN [1]) | Binding to DNA substrate alone [2] | Effect on IN-DNA complex formation (fluorescence polarization) (IN-DNA complex) | IC50 (HIV-1 integrase (IN) [3]) | IC50 (HIV-1 integrase (IN) [4]) | Covalent crosslinking to IN upon UV irradiation (HIV-1 IN [5]) | IC50 (IN)
1 | CC[C@H](C)[C@H](NC(=O)[C@H](CCCNC(=N)N)NC(=O)[C@H](Cc1ccccc1)NC(=O)[C@H](Cc1c[nH]cn1)NC(=O)[C@@H](NC(=O)[C@@H](N)Cc1ccccc1)[C@@H](C)CC)C(=O)NCC(=O)O [Peptide 1a, FIHFRIG] (H-FIHFRIG-OH) | did not induce higher-order IN multimerization | no detectable binding | did not block the IN–DNA interactions, but rather promoted IN–DNA complex formation | 1 µM and 1.3 µM | 17.6 ± 1.2 µM |  | 
2 | CC[C@H](C)[C@H](NC(=O)[C@H](CCCNC(=N)N)NC(=O)[C@H](Cc1ccccc1)NC(=O)[C@H](Cc1c[nH]cn1)NC(=O)[C@H](Cc1ccc(C(=O)c2ccccc2)cc1)NC(=O)[C@@H](N)Cc1ccccc1)C(=O)NCC(=O)O [Peptide 13a, FBHFRIG] (H-F[Bpa]HFRIG-OH) |  |  |  | 20 ± 3 µM | 37 ± 5 µM |  | 
3 | CC[C@H](C)[C@H](NC(=O)[C@H](CCCNC(=N)N)NC(=O)[C@H](Cc1ccccc1)NC(=O)[C@H](Cc1c[nH]cn1)NC(=O)[C@@H](NC(=O)[C@@H](N)Cc1ccc(C(=O)c2ccccc2)cc1)[C@@H](C)CC)C(=O)NCC(=O)O [Peptide 14a, BIHFRIG] (H-[Bpa]IHFRIG-OH) |  |  |  | 2.1 ± 0.3 µM | 7.2 ± 1.2 µM |  | 
4 | Biotin-linker-BIHFRIG [Peptide 15] |  |  |  | 2.3 ± 0.3 µM | 32 ± 7 µM | covalent adducts of 15 with IN | 
5 | QQLLFIHFRIGCQHS [Vpr (65–79)] |  |  |  |  |  |  | 14 µM

From publication PMC6222646, “HIV-1 Integrase-Targeted Short Peptides Derived from a Viral Protein R Sequence” (Molecules : A Journal of Synthetic Chemistry and Natural …, 2018)
